In patent US20190225643A1, “NOVEL NUCLEOSIDE ANALOGS AND USE THEREOF IN THERAPEUTIC TREATMENT” (CORNELL UNIVERSITY, priority 2016, published 2019):

Experiments:
KSHV+ PEL cell lines = assay: CellTiter-Glo viability assay, KSHV+ cell line panel; type: cell-based, human
Description: (§1) Cell viability assays were performed by plating log-phase cells in RPMI complete media with 20% FBS at 1*10^5 cells/mL, with concentrations of 6-ETI or phospho-6-ETI ranging from 0.1 nM to 100 μM. ATP content at 24, 48 and 72 hours post-treatment was measured by the CellTiter-Glo kit (Promega, Madison, Wis.), or by Trypan blue assay as indicated. The LC50 for 6-ETI in each cell line was determined using online EC50 software at changbioscience.com or using GraphPad Prism to determine the LC50 for 6-ETI, phospho-6-ETI and nucleoside analogs in MM cell lines and primary MM patient samples.
KSHV+ primary effusion lymphoma (PEL) cell lines (BC1, BC2, BC3, BC5, BCBL1, BCP1), EBV+ lymphoblastoid cell line LCL9001, EBI+ diffuse large B-cell lymphomas (DLBCL) with immunoblastic features (IBL1, IBL4), and EBV+ effusion DLBCL BCKN1 were cultured in RPMI-1640 medium (Invitrogen) supplemented with 50 μg/mL Gentamicin (Sigma-Aldrich) and 10% or 20% heat-inactivated fetal bovine serum, respectively. Uninfected DLBCL cell lines (Ly2, Ly7) were cultured in IMDM (Invitrogen) supplemented with 50 μg/mL Gentamicin and 10% FBS. Multiple myeloma (MM) cell lines U266 and MM1S were cultured in RPMI supplemented with 15%FBS and 50 μg/mL Gentamicin, while JJN3 was cultured in 40% IMDM/40% DMEM plus 20% FBS supplemented with 50 μg/mL Gentamicin. Hodgkin's lymphoma (L428, L1236) and Burkitt's lymphoma cell lines (BJAB, Namalwa)were maintained in RPMI-1640 supplemented with Gentamicin and 10% FBS. All of the PEL cell lines and IBL1 were established in our laboratory from lymphomatous effusions except BCBL1, which was obtained from the AIDS and Cancer Specimen Bank. Burkitt lymphoma cell lines Namalwa and BJAB as well as the multiple myeloma cell line U266 were obtained from the American Type Culture Collection (ATCC). JJN3 cell line and Hodgkin cell lines (L428, L1236) were obtained from DSMZ. DLBCL cell lines LY2 and LY7 were provided by Riccardo Dana-Rivera (Columbia University), MM1S cell line was provided by Dr. Giorgio Inghiraini lab at Weill Cornell Medicine. […]

KSHV- cell lines = assay: CellTiter-Glo viability assay, KSHV- cell line panel; type: cell-based; settings: Homo sapiens, 48 h, read-out: LC50
Description: as §1
KSHV+ primary effusion lymphoma (PEL) cell lines (BC1, BC2, BC3, BC5, BCBL1, BCP1), EBV+ lymphoblastoid cell line LCL9001, EBI+ diffuse large B-cell lymphomas (DLBCL) with immunoblastic features (IBL1, IBL4), and EBV+ effusion DLBCL BCKN1 were cultured in RPMI-1640 medium (Invitrogen) supplemented with 50 μg/mL Gentamicin (Sigma-Aldrich) and 10% or 20% heat-inactivated fetal bovine serum, respectively. Uninfected DLBCL cell lines (Ly2, Ly7) were cultured in IMDM (Invitrogen) supplemented with 50 μg/mL Gentamicin and 10% FBS. Multiple myeloma (MM) cell lines U266 and MM1S were cultured in RPMI supplemented with 15%FBS and 50 μg/mL Gentamicin, while JJN3 was cultured in 40% IMDM/40% DMEM plus 20% FBS supplemented with 50 μg/mL Gentamicin. […]

BC3 cells [1] = assay: Trypan-blue exclusion viability, PEL cell line; type: cell-based; settings: Homo sapiens, BC-3; selected PEL cell line (BC3), 48 hours; read-out: LC50 by Trypan-blue exclusion
Description: as §1

BC3 cells [2] = assay: Propidium iodide cell cycle flow cytometry; type: cell-based, human; settings: BC3, 1 μM, 24 hours
Description: BC3 cells in the exponential phase were seeded at a cell density of 2*10^5 cells/mL. Cells were treated with 0.1% DMSO or with 6-ETI at a final concentration of 1 μM 6-ETI for 24 hrs for cell cycle. Post-treatment, cells were harvested, fixed and stained in Propidium Iodide (Roche). Subsequently, stained cells were analyzed by flow cytometry using BD FACS Aria II SORP cell sorter, and phases of the cell cycle modeled using FlowJo v7.6.5.

[3] = tested on: DNA synthesis in BC3 cells; assay: Click-iT EdU DNA synthesis assay, BC3; type: cell-based, human; settings: BC3, 1 μM, 24 hours
Description: (§2) BC3 and U266 cells were seeded at a density of 0.5 million cells/ml and treated with DMSO only, 1 μM or 1.0 μM 6-ETI for BC3 cells and 0.5 μM 6-ETI for U266 cells for 24 hrs. At 24 hrs post 6-ETI treatment, 0.5 million cells of each of the treated conditions were labeled with 10 μM of EdU for 2 hours then fixed for 30 min using 2% paraformaldehyde supplemented with 0.3M sucrose. Cells were then washed in PBS and perineabilized with 0.2% saponin, PBS with 1% BSA and 0.3M sucrose for 20 min at room temperature. During this incubation time, a click-iT cocktail mix containing, click iT reaction buffer, CuSO4, alexafluor488 and click iT reaction buffer additive was prepared according to the manufacturer's instructions. Cells were washed in PBS after permeabilization and the click-iT cocktail mix was added for 30 min at room temperature in the absence of light. To visualize DNA, cells were counterstained with Hoechst (1:1000) for another 30 min then washed and resuspended in PBS with 1% BSA. 20 μl of the resuspended cells were combined with 20 μl of mounting media Fluoromount-G (Southern biotech) and cells were mounted on Ibidi μ-slides. Cells were imaged using DeltaVision image restoration microscope (Rockefeller center).

[4] = tested on: DNA synthesis in U266 cells; assay: Click-iT EdU DNA synthesis assay, MM cells; type: cell-based, human; settings: 24 hrs
Description: as §2

[5] = tested on: KSHV lytic reactivation in JSC1 PEL cell line; assay: Lytic reactivation flow assay in rKSHV.219 infected JSC1 cells; type: cell-based; settings: in a small proportion of cells; 1 or 10 μM, 24 or 48 hours
Description: Lytic reactivation low was performed as previously described (Soulier J. et al., Blood 1995;86(4):1276-80). JSC1 B3.1 cells in the exponential phase were seeded at 2*10^5 cells/mL and treated with 1 or 10 μM 6-ETI for 24 or 48 hours, or 20 ng/mL lytic inducer TPA for 48 hours.

[6] = tested on: MM cell lines JJN3, MM1S, U266 and CAG; assay: CellTiter-Glo viability assay, MM cell lines; type: cell-based
Description: as §1

[7] = tested on: CAG-luc multiple myeloma xenograft; assay: Disseminated multiple myeloma xenograft model; type: in vivo, mouse
Description: For the disseminated multiple myeloma xenograft model, CAG cells were kindly provided by Dr. Malcolm Moore lab at MSKCC. 1×10^7 of CAG cells stably expressing the HSV-TK-eGFP-luciferase fusion protein were injected intravenously into NOD/SCID (NOD/LTSZPrko/J, the Jackson Laboratory Stock# 001303). Eight days after tumor induction, mice were randomized into control and treated cohorts and treated intraperitoneally with either PBS 0.05% tween 80 (vehicle) or 200 mg/kg of 6-ETI daily for 9 days. Tumor mass or bioluminescence (photons/s/cm^2/steradian) was evaluated by imaging the mice using IVIS Imaging system. Statistical analysis was done using a two-tailed, unpaired Student's t-test using GraphPad prism.

[8] = 200 mg/kg for 9 days; cited from earlier work

CCSc1ncnc2c1ncn2[C@@H]1O[C@H](CO)C(O)[C@@H]1O (some centres unmarked) [Compound 6-ETI, 6-ethylthioinosine]
CC50 (KSHV+ PEL cell lines; Homo sapiens, 48 h, read-out: LC50): 0.03 to 0.435 µM
average fold-difference in sensitivity (KSHV+ PEL cell lines; KSHV- versus KSHV+ cell lines): ~275 X
LC95 (KSHV+ PEL cell lines; PEL cell lines): ~1 µM
CC50 (KSHV- cell lines): 10 to 80 µM
CC50 (BC3 cells [1]): 0.074 µM
cell cycle distribution (BC3 cells [2]): reproducible increase in the percentage of cells in S-phase
DNA synthesis (EdU incorporation) [3]: complete inhibition of DNA synthesis
DNA synthesis (EdU incorporation) [4]: suppressed DNA synthesis
lytic reactivation [5]: induction of lytic reactivation
LC50 [6]: high nM range
tumor burden (bioluminescent signal) ([7]; 200 mg/kg/day i.p. for 9 days): significant reduction in tumor burden
weight loss ([7]; 200 mg/kg/day i.p. for 9 days): without any weight loss
overall survival ([7]; 200 mg/kg/day, P<0.005): significantly prolonged
reported toxicities [8]: no reported toxicities
